± gives the standard deviation of the averaged measurements.
Tests used:
Settings in all cases: treatment time: 3 days
[1] = test system: UT-SCC-24A; assay: relative IC50 (midpoint of the fitted curve; maximal inhibition may be below 50%); higher = less potent
Procedure: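 HNSCC cell lines (500 cells/well, 384-well) were cultured on plastic, on top of (2D) or embedded (3D) in Matrigel or human leiomyoma matrix Myogel (500 ug/mL; Myogel 3D mixed with rat collagen I). Cells were treated for 3 days with 5 ten-fold concentrations of each drug, and viability was read by CellTiter-Glo. Viability was normalised to DMSO (0% inhibition) and 100 uM benzethonium chloride (100% inhibition) controls and fitted with the FIMM DSRT pipeline to give IC50 (nM), maximal % inhibition and the drug sensitivity score (DSS). Suffixes _1/_2/_3 on drug names are replicates.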

[2] = test system: UT-SCC-8; assay: relative IC50 (midpoint of the fitted curve; maximal inhibition may be below 50%); higher = less potent
How it was run: (§1)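 Using 384-well plates, 500 cells/well of HPV-negative HNSCC cell lines were grown on plastic, on 500 µg/mL Matrigel or Myogel coatings, or embedded in Matrigel or Myogel with rat collagen I. They were treated with compounds at five 10-fold concentrations for 3 days, and luminescence from CellTiter-Glo 2.0 was normalised to vehicle (0.1% DMSO) and cell-killing control wells. IC50, maximal inhibition and drug sensitivity score were derived from percent-inhibition dose–response curves in the FIMM pipeline.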

[3] = test system: UT-SCC-14; assay: as above
How it was run: as §1

[4] = test system: UT-SCC-28; assay: as above
How it was run: as §1

[5] = test system: UT-SCC-81; assay: as above
How it was run: as §1

[6] = test system: UT-SCC-106A; assay: as above
How it was run: as §1

[7] = test system: UT-SCC-44; assay: as above
How it was run: as §1

[8] = test system: UT-SCC-42B; assay: as above
How it was run: as §1

[9] = test system: UT-SCC-73; assay: as above
How it was run: as §1

[10] = test system: UT-SCC-24B; assay: as above
How it was run: as §1

[11] = test system: UT-SCC-40; assay: as above
How it was run: as §1

[12] = test system: UT-SCC-42A; assay: as above
How it was run: as §1

[13] = test system: UT-SCC-8; assay: maximal % inhibition of viability relative to DMSO; higher = stronger effect
Procedure: (§2)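 HNSCC cell lines (500 cells/well, 384-well) were cultured on plastic, on top of (2D) or embedded (3D) in Matrigel or human leiomyoma matrix Myogel (500 ug/mL; Myogel 3D mixed with rat collagen I). Cells were treated for 3 days with 5 ten-fold concentrations of each drug, and viability was read by CellTiter-Glo. Viability was normalised to DMSO and benzethonium chloride controls and fitted with the FIMM DSRT pipeline to give IC50 (nM), maximal % inhibition and DSS. Suffixes _1/_2/_3 are replicates. Only inhibition-mode (IC50) fits are kept.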

[14] = test system: UT-SCC-81; assay: as above
Procedure: as §2

[15] = test system: UT-SCC-44; assay: as above
Procedure: as §2

[16] = test system: UT-SCC-42B; assay: as above
Procedure: as §2

[17] = test system: UT-SCC-73; assay: as above
Procedure: as §2

[18] = test system: UT-SCC-24B; assay: as above
Procedure: as §2

[19] = test system: UT-SCC-40; assay: as above
Procedure: as §2

[20] = test system: UT-SCC-42A; assay: as above
Procedure: as §2

[21] = culture condition: embedded in Matrigel
[22] = culture condition: embedded in Myogel + collagen I
[23] = culture condition: on top of Matrigel
[24] = culture condition: on top of Myogel
[25] = culture condition: plastic 2D (no matrix)

`C=CC(=O)Nc1cc2c(Nc3ccc(F)c(Cl)c3)ncnc2cc1OCCCN1CCOCC1` [Canertinib] was tested. Which “relative IC50” value [1, 21] did it give?
The value was 38.1 nM.

And the “relative IC50” value [1, 22]?
Its value is 1010 nM.

What about the “relative IC50” value [1, 23] of the same compound?
Its value is 84.8 nM.

And the “relative IC50” value [1, 24]?
Its value is 1630 nM.

What about the “relative IC50” value [1, 25] of the same compound?
Its value is 83.1 nM.

What about the “relative IC50” value [2, 21] of the same compound?
Its value is 34.9 nM.

What about the “relative IC50” value [2, 22] of the same compound?
Its value is 3640 nM.

And the “relative IC50” value [2, 23]?
Its value is 35.7 nM.

What about the “relative IC50” value [2, 24] of the same compound?
The value was 912 nM.

And the “relative IC50” value [2, 25]?
The value was 39.3 nM.

And the “relative IC50” value [3, 21]?
Its value is 49 nM.

And the “relative IC50” value [3, 22]?
Its value is 970 nM.

What about the “relative IC50” value [3, 23] of the same compound?
The value was 59.1 nM.

What about the “relative IC50” value [3, 24] of the same compound?
Its value is 310 nM.

What about the “relative IC50” value [3, 25] of the same compound?
The value was 61.2 nM.

And the “relative IC50” value [4, 21]?
The value was 3420 nM.

What about the “relative IC50” value [4, 22] of the same compound?
Its value is 1510 nM.

What about the “relative IC50” value [4, 23] of the same compound?
Its value is 1630 nM.

And the “relative IC50” value [4, 25]?
The value was 1760 nM.

And the “relative IC50” value [5, 21]?
Its value is 36.5 nM.

And the “relative IC50” value [5, 22]?
The value was 1510 nM.

And the “relative IC50” value [5, 23]?
Its value is 52 nM.

What about the “relative IC50” value [5, 24] of the same compound?
The value was 1590 nM.

And the “relative IC50” value [5, 25]?
Its value is 69.6 nM.

And the “relative IC50” value [6, 21]?
The value was 319 nM.

What about the “relative IC50” value [6, 22] of the same compound?
Its value is 2830 nM.

And the “relative IC50” value [6, 23]?
The value was 171 nM.

And the “relative IC50” value [6, 24]?
Its value is 2270 nM.

What about the “relative IC50” value [6, 25] of the same compound?
Its value is 126 nM.

What about the “relative IC50” value [7, 21] of the same compound?
The value was 3360 nM.

What about the “relative IC50” value [7, 22] of the same compound?
The value was 2360 nM.

And the “relative IC50” value [7, 23]?
The value was 1660 nM.

And the “relative IC50” value [7, 24]?
The value was 2050 nM.

What about the “relative IC50” value [7, 25] of the same compound?
Its value is 1910 nM.

And the “relative IC50” value [8, 21]?
Its value is 75.9 nM.

And the “relative IC50” value [8, 23]?
The value was 299 nM.

And the “relative IC50” value [8, 24]?
Its value is 2470 nM.

What about the “relative IC50” value [8, 25] of the same compound?
The value was 808 nM.

And the “relative IC50” value [9, 21]?
Its value is 2120 nM.

What about the “relative IC50” value [9, 22] of the same compound?
Its value is 2070 nM.

What about the “relative IC50” value [9, 23] of the same compound?
The value was 1660 nM.

What about the “relative IC50” value [9, 24] of the same compound?
The value was 1750 nM.

And the “relative IC50” value [9, 25]?
Its value is 1650 nM.

What about the “relative IC50” value [10, 21] of the same compound?
Its value is 253 nM.

What about the “relative IC50” value [10, 22] of the same compound?
The value was 1530 nM.

What about the “relative IC50” value [10, 23] of the same compound?
The value was 234 nM.

And the “relative IC50” value [10, 24]?
The value was 1580 nM.

And the “relative IC50” value [10, 25]?
The value was 63.1 nM.

And the “relative IC50” value [11, 21]?
Its value is 48.9 nM.

And the “relative IC50” value [11, 22]?
Its value is 1310 nM.

What about the “relative IC50” value [11, 23] of the same compound?
Its value is 65.8 nM.

What about the “relative IC50” value [11, 24] of the same compound?
The value was 1270 nM.

What about the “relative IC50” value [11, 25] of the same compound?
The value was 211 nM.

What about the “relative IC50” value [12, 21] of the same compound?
The value was 253 nM.

What about the “relative IC50” value [12, 22] of the same compound?
The value was 2020 nM.

What about the “relative IC50” value [12, 23] of the same compound?
Its value is 205 nM.

What about the “relative IC50” value [12, 24] of the same compound?
Its value is 1270 nM.

What about the “relative IC50” value [12, 25] of the same compound?
Its value is 238 nM.

And the “maximal % inhibition of viability” value [13, 21]?
Its value is 99.83 ± 0.29%.

What about the “maximal % inhibition of viability” value [13, 22] of the same compound?
The value was 99 ± 1%.

What about the “maximal % inhibition of viability” value [13, 23] of the same compound?
The value was 99.967 ± 0.058%.

What about the “maximal % inhibition of viability” value [13, 24] of the same compound?
The value was 99.967 ± 0.058%.

What about the “maximal % inhibition of viability” value [13, 25] of the same compound?
Its value is 99.37 ± 0.85%.

And the “maximal % inhibition of viability” value [14, 21]?
The value was 99.63 ± 0.4%.

And the “maximal % inhibition of viability” value [14, 22]?
Its value is 99.77 ± 0.32%.

And the “maximal % inhibition of viability” value [14, 23]?
The value was 99.27 ± 0.64%.

What about the “maximal % inhibition of viability” value [14, 24] of the same compound?
The value was 99.13 ± 0.75%.

And the “maximal % inhibition of viability” value [14, 25]?
Its value is 99.77 ± 0.4%.

What about the “maximal % inhibition of viability” value [15, 21] of the same compound?
Its value is 77.5 ± 7%.

And the “maximal % inhibition of viability” value [15, 22]?
The value was 92.5 ± 2.4%.

And the “maximal % inhibition of viability” value [15, 23]?
The value was 92 ± 3.6%.

And the “maximal % inhibition of viability” value [15, 24]?
Its value is 95 ± 3.5%.

What about the “maximal % inhibition of viability” value [15, 25] of the same compound?
The value was 94.1 ± 3.5%.

And the “maximal % inhibition of viability” value [16, 21]?
The value was 99.5 ± 0.36%.

And the “maximal % inhibition of viability” value [16, 23]?
Its value is 99.87 ± 0.23%.

And the “maximal % inhibition of viability” value [16, 24]?
The value was 99.77 ± 0.4%.

And the “maximal % inhibition of viability” value [16, 25]?
The value was 99.17 ± 0.74%.

What about the “maximal % inhibition of viability” value [17, 21] of the same compound?
Its value is 99.5 ± 0.46%.

What about the “maximal % inhibition of viability” value [17, 22] of the same compound?
The value was 99.57 ± 0.59%.

What about the “maximal % inhibition of viability” value [17, 23] of the same compound?
The value was 99.13 ± 0.78%.

What about the “maximal % inhibition of viability” value [17, 24] of the same compound?
Its value is 98.9 ± 0.98%.

What about the “maximal % inhibition of viability” value [17, 25] of the same compound?
The value was 99.5 ± 0.7%.

What about the “maximal % inhibition of viability” value [18, 21] of the same compound?
Its value is 99.67 ± 0.31%.

And the “maximal % inhibition of viability” value [18, 22]?
Its value is 99.33 ± 0.61%.

What about the “maximal % inhibition of viability” value [18, 23] of the same compound?
Its value is 99.83 ± 0.29%.

And the “maximal % inhibition of viability” value [18, 24]?
Its value is 99.7 ± 0.52%.

What about the “maximal % inhibition of viability” value [18, 25] of the same compound?
The value was 99.47 ± 0.46%.

And the “maximal % inhibition of viability” value [19, 21]?
Its value is 99.5 ± 0.46%.

And the “maximal % inhibition of viability” value [19, 22]?
The value was 99.37 ± 0.55%.

And the “maximal % inhibition of viability” value [19, 23]?
The value was 99.73 ± 0.38%.

What about the “maximal % inhibition of viability” value [19, 24] of the same compound?
The value was 99.63 ± 0.55%.

And the “maximal % inhibition of viability” value [19, 25]?
Its value is 99.67 ± 0.58%.

What about the “maximal % inhibition of viability” value [20, 21] of the same compound?
The value was 96.9 ± 4.2%.

And the “maximal % inhibition of viability” value [20, 22]?
The value was 97.4 ± 3.2%.

What about the “maximal % inhibition of viability” value [20, 23] of the same compound?
The value was 98.3 ± 1.7%.

And the “maximal % inhibition of viability” value [20, 24]?
The value was 98 ± 1.9%.

What about the “maximal % inhibition of viability” value [20, 25] of the same compound?
Its value is 99.23 ± 0.8%.
